# Results from PubChem BioAssay AID1996.
# Settings: buffer; pH 7.4; 200.0 µM
row,Compound,solubility kinetic [µg/mL]
1,O=C(NCC1CCCCC1)c1ccc(Cl)nc1,> 37.9
2,CN(CC(=O)Nc1ccc(SC(F)F)cc1)C1CCCCC1,32.2
3,O=C(O)CSCC(=O)N1CCN(Cc2ccc3c(c2)OCO3)CC1,> 52.9
4,c1ccc(CCNc2nc(-c3ccncc3)nc3ccccc23)cc1,0.3
5,COc1ccc(NC(=O)CCC(=O)NCc2ccco2)c([N+](=O)[O-])c1,> 52.1
6,COC(=O)c1ccc(NC(=O)N(c2ccccc2)c2ccccc2)cc1,0.7
7,COc1ccc(O)c(/C=N/c2sc(C)c(C)c2C#N)c1,1
8,CCC(C(=O)Nc1ccc(C(=O)N2CCCC2)cc1)c1ccccc1 (stereo unspecified),> 50.5
9,CCOC(=O)c1cnc2cc(F)c(F)cc2c1N1CCN(C)CC1,30.7
10,O=C(CN1CCN(Cc2ccccc2)CC1)Nc1nc2ccccc2s1,47.4
11,COC(=O)c1ccccc1NC(=O)Cn1cnc([N+](=O)[O-])c1,> 45.6
12,Cc1ccc(NC(=S)Nc2ccccn2)cc1C,0.4
13,CCc1ccc(NC(=O)N2CCCCCC2)cc1,31.9
14,C[n+]1cccc(/C=N/Nc2nc(Cl)c(C#N)c(Cl)c2Cl)c1.[Cl-],> 56.6
15,O=C(NC12CC3CC(CC(C3)C1)C2)c1c(Cl)cccc1Cl,< 0.7
16,O=C(CSc1nnc(-c2ccccn2)o1)Nc1ccc(F)cc1,> 49.6
17,CC(NC1=NCCS1)c1ccccc1 (stereo unspecified),30.4
18,O=C(Nc1cccc(F)c1)Nc1ccc2c(c1)CCC2,< 0.3
19,O=c1[nH]cccc1-c1nc2ccccc2n1Cc1cccc(F)c1,2.4
20,Cc1cnc(NC(=O)CSCc2c(C)noc2C)s1,19.6
21,Cc1c(C(=O)N2CCCc3ccccc32)oc2ccccc12,5.7
22,COc1cc(CC(=O)OCC(=O)NCc2ccco2)cc(OC)c1OC,> 54.5
23,COc1ccc(/C=C/C2=CC(C)(C)NC(=S)N2)cc1,9.4
24,COc1ccccc1NC(=O)c1cc(Cl)nc2ccccc12,3.4
25,O=C(NCCNC(=O)c1cnccn1)c1cccc(Cl)c1,42.7

row,Compound,solubility kinetic [µg/mL]
1,N#CCc1nc(-c2cc3ccccc3oc2=O)cs1,5.4
2,O=C(Cc1ccccc1)Nc1cccc(NC(=O)c2ccccc2)c1,1.5
3,O=C(CN1C(=O)NC2(CCCCCC2)C1=O)Nc1ccc([N+](=O)[O-])cc1,13.3
4,COc1cc(C)ccc1OCC(=O)NCC1CCCO1 (stereo unspecified),> 41.9
5,CCC(Oc1ccccc1)C(=O)NC1CCSC1=O (stereo unspecified),> 41.9
6,O=C(Cn1cc(C(F)(F)F)ccc1=O)N1CCCc2ccccc21,> 50.4
7,COC(=O)CSc1nc2cc3c(cc2cc1C)OCO3,1.7
8,N#CCSc1ccc(S(=O)(=O)N2CCOCC2)cn1,> 44.9
9,O=C(COC(=O)COc1ccc(Cl)cc1)NC1CCCCCC1,8.1
10,O=S(=O)(NCCCN1CCOCC1)c1ccc(Cl)cc1,> 47.8
11,O=C(COc1ccccc1Cl)NCCCNC(=O)c1ccncc1,44.7
12,NC(=O)CN(C/C=C/c1ccccc1)C/C=C/c1ccccc1,7.4
13,Cc1ccccc1CC(=O)NC1CCN(C)CC1,> 37
14,COc1cc(NC(=S)N2CCN(C)CC2)cc(OC)c1,> 44.3
15,CCn1c(C)nc2cc(N)ccc21.Cl,34.3
16,Cc1cc(C)c(NC(=O)C2CCCO2)c(C)c1 (stereo unspecified),> 35
17,C/C(=C\c1ccccc1)CN1CCN(C(C)C)C(CCO)C1 (stereo unspecified),> 45.4
18,COCc1cc(C)nc(SCC(=O)Oc2ccccc2)c1C#N,29.1
19,COc1ccc(NC(=S)NC(=O)c2ccccc2)cn1,35.8
20,COc1cccc(NC(=O)CN(C)CC(=O)NC(C)c2ccccc2)c1 (stereo unspecified),41.4
21,C#CCOC(=O)C[N+](C)(C)CC=C.[Cl-],> 32.7
22,COc1cccc(/C=N/N2CCN(Cc3ccccc3)CC2)c1O,> 48.8
23,N#Cc1c(Cl)cccc1N1CCCC1,2
24,CC1(C)C(=O)Nc2ccccc2N1C(=O)CSc1ncccn1,> 49.3
25,C#Cc1cccc(NC(=O)Cc2cccs2)c1,> 36.2

row,Compound,solubility kinetic [µg/mL]
1,CN1CCN(NC(=S)NC(C)(C)CC(C)(C)C)CC1,> 43
2,Cc1cccc(-c2ncc(S(=O)(=O)C(C)(C)C)c(N)n2)c1,0.2
3,NC(=O)C1CCCN(C(=O)CCCNC(=O)c2ccc(Cl)cc2)C1 (stereo unspecified),> 52.8
4,O=C(NC1CCCCCC1)C(=S)NCc1ccccc1,1.6
5,CSc1ncccc1C(=O)Nc1nc2ccc(F)cc2s1,1.8
6,CCc1cc(=O)[nH]c(SCCc2ccccc2)n1,> 39.1
7,CCOC(=O)c1ccc(NC(=O)C2C3CCCCC32)cc1 (stereo unspecified),< 0.6
8,CC(Sc1nnc2n1CCCCC2)C(=O)Nc1ccccc1[N+](=O)[O-] (stereo unspecified),> 54.2
9,COc1ccccc1OCC(=O)Nc1ccc(S(=O)(=O)N(C)c2ccccc2)cc1,2.4
10,COc1ccc([N+](=O)[O-])cc1NC(=O)COC(=O)C=C(C)C,1.1
11,CN(C)/C=N/c1ncc(C(=O)c2ccc(-c3ccccc3)cc2)s1,1.1
12,CCCC(=O)Nc1ccc(-c2csc(-c3cccnc3)n2)cc1,0.7
13,CCC(C)NC(=O)N1c2ccccc2Sc2ccccc21 (stereo unspecified),28
14,O=C(CCc1ccccc1)NC(=S)Nc1cccc(C(=O)O)c1,> 49.3
15,N#Cc1cnc(SCC(=O)N2CCCC2)nc1N,> 39.5
16,O=C(CCCNC(=O)c1ccc(Cl)cc1)Nc1cccc(F)c1,5.6
17,N/C(=N\[N+](=O)[O-])N1CCN(C(=O)OC2CCCC2)CC1,> 42.8
18,Cc1ccc(SC(C)C(=O)NCc2ccc(F)cc2)cc1 (stereo unspecified),8.2
19,Cc1cc(SCC(=O)N(C)C2CCCCC2)nc2ccccc12,19.4
20,COc1ccc2[nH]c(C(=O)Nc3ccc4c(c3)OCO4)cc2c1,1.1
21,CCS(=O)(=O)N1CCC(C(=O)Oc2ccccc2)CC1,39.1
22,COc1ccc(/C=C/C(=O)NC(=S)N2CCSCC2)cc1,11.1
23,CCOc1ncccc1C(=O)Nc1ccc(C)cn1,31.8
24,Cc1ccc(C(=O)OCC(=O)NC(C)C2CC3CCC2C3)cc1N (stereo unspecified),> 49.6
25,COc1ccc(N2C(=O)CS/C2=N\C(=S)Nc2ccccc2)cc1,1.4

row,Compound,solubility kinetic [µg/mL]
1,Cc1[nH]c2ccccc2c1/C=C(\C#N)C(=O)NCC1CCCO1 (stereo unspecified),20.6
2,O=c1c2ccccc2[nH]c(=S)n1Cc1ccc2c(c1)OCO2,< 0.3
3,COc1ccc(N2C(=O)C(F)(F)C2c2ccccc2F)cc1 (stereo unspecified),0.8
4,CSc1ccc(CNCC2CCCO2)cc1.Cl (stereo unspecified),37.1
5,Cc1cccc(NC(=S)NC2CCCC2)c1C,34.1
6,Cc1ccc(OCC(=O)N2CC(C)OC(C)C2)c([N+](=O)[O-])n1 (stereo unspecified),> 46.4
7,COc1cc(/C=C/C(=O)Nc2ccc(OC)c(S(=O)(=O)N3CCOCC3)c2)ccc1OC(F)F,2.6
8,Cc1noc(C)c1C(=O)OCC(=O)Nc1c(F)cccc1F,24
9,CCN1CCN(c2ccc(N=Cc3ccccc3O)cc2)CC1,40.7
10,CCSc1nc2sc3c(c2c(=O)n1CC)CCC3,2.2
11,Cc1cc(OCCN2CCOCC2)ccc1Cl,25.9
12,Cc1cc(F)ccc1NS(=O)(=O)c1cccc2nsnc12,44.2
13,CCCC/C=C1\CCc2c([nH]c3ccccc23)C1=O,2
14,O=C(COC(=O)Cc1c(F)cccc1Cl)NC(=O)Nc1ccccc1F,1.9
15,Cc1ccsc1C(=O)NCCc1ccco1,33.5
16,Cc1ccc2[nH]cc(S(=O)(=O)c3ccc(C)c(C)c3)c(=O)c2c1,< 0.7
17,CC1CCCCN1S(=O)(=O)c1ccc(C(=O)N2CCOCC2)cc1 (stereo unspecified),> 52.9
18,NS(=O)(=O)c1ccc(N2CCN(C(=O)c3ccco3)CC2)nc1,> 50.5
19,Cc1noc(C)c1C(=O)Nc1nccs1,> 33.5
20,N#Cc1c(-c2cccc(Cl)c2)[nH]c(=S)[nH]c1=O,> 39.6
21,CC(=O)Nc1ccc(N=Cc2c(O)ccc3ccccc23)cc1,7.6
22,O=C(NCCOc1ccc(Cl)cc1)c1ccc2ccccc2n1,4
23,COc1ccc(NC(=O)N2CCc3ccccc3C2)cc1,17.8
24,N/C(=N\OC(=O)C1CC1)c1ccc([N+](=O)[O-])s1,26.4
25,CCN(Cc1ccncc1)Cc1ccc(Br)cc1.O=C(O)C(=O)O,30.6

row,Compound,solubility kinetic [µg/mL]
1,CCN(CC)C(=O)CN1C(=O)NC2(CCc3ccccc3C2)C1=O (stereo unspecified),> 49.4
2,O=C(O)C(=O)O.c1ccc2cc(OCCCn3ccnc3)ccc2c1,> 51.4
3,COCCNC(=O)c1ccc(-c2csc(C)n2)cc1,> 41.5
4,O=C(O)CCC(=O)NN1C(=O)c2ccccc2NC1c1ccc(F)cc1 (stereo unspecified),> 53.6
5,Cc1ccc2nc(-c3ccncc3)cc(C(=O)N3CCOCC3)c2c1,> 50
6,Nc1ccccc1N=Cc1ccc(-c2cccc(Cl)c2)o1,< 0.3
7,CC(=O)Nc1ccc(/C=C/c2ccc3c([N+](=O)[O-])cccc3n2)cc1,16.2
8,O=C(Cc1cccc2ccccc12)Nc1cc(C(=O)O)cc(C(=O)O)c1,> 52.4
9,Cc1onc(C(=O)NCCc2ccccc2)c1[N+](=O)[O-],> 41.3
10,COC(=O)c1sccc1NC(=O)Nc1ccc(OC)cc1OC,15.4
11,CC(=O)CCn1cc([N+](=O)[O-])nc1C,> 29.6
12,CN1C(=O)C(=O)/C(=C(/O)c2ccccc2)C1c1ccccc1 (stereo unspecified),> 44
13,CN1C(=O)N(C)C(=O)C2(Cc3cc([N+](=O)[O-])ccc3N(C)C2)C1=O,5.3
14,COc1ccc2nc(S(=O)Cc3ncc(C)c(OC)c3C)[nH]c2c1 (stereo unspecified),35.4
15,COc1ccc(C)cc1NC(=O)NCCCCc1ccccc1,0.4
16,Cc1ccc(C)c(N2C(=O)CC(Cc3ccccc3)C2=O)c1.Cl (stereo unspecified),> 49.5
17,COC(=O)[C@@H](NC(=O)NC1CCCCC1C)C(C)C (stereo partly specified),> 40.6
18,Cc1ccc(-n2c(C)cc(/C=C3\SC(=O)NC3=O)c2C)cc1,< 0.3
19,COC(=O)CNC(=O)COC(=O)c1ccc(Cl)nc1,> 43
20,CCCCC1C2C(=O)N(c3ccccc3)C(=O)C2ON1c1ccccc1 (stereo unspecified),49.1
21,O=C(NCc1ccco1)/C(=C\c1ccco1)NC(=O)c1ccco1,47.3
